This is an account of results in patent publication US6838414B2, “Substituted aryl sulphonyl(thio)ureas used as herbicides” (Bayer Aktiengesellschaft, priority 1996, dated 2005).

Series [1] deals with Alopecurus. Kind of series: Pre-emergence test/greenhouse. As to conditions: after three weeks. Format: in vivo.
Another series has as its system Amaranthus. Kind of series: Pre-emergence test/greenhouse. It is filed as in vivo. As to conditions: after three weeks.
In a further series the test system is Chenopodium. Kind of series: Pre-emergence test/greenhouse. Format: in vivo. The note with it: after three weeks.
A further series concerns Lolium. Kind of series: Pre-emergence test/greenhouse. It is filed as in vivo. As to conditions: after three weeks.
For the next series, the system named is Sorghum. Kind of series: Pre-emergence test/greenhouse. It is filed as in vivo. As to conditions: after three weeks.
The test system of the next series is Stellaria. Kind of series: Pre-emergence test/greenhouse. It is filed as in vivo. The note with it: after three weeks.
Series [2] concerns weeds. Kind of series: Pre-emergence test (overall statement). It is filed as in vivo. The note with it: application rates between 30 g and 125 g of a.i. per hectare.
In another series the test system is Abutilon. Kind of series: Post-emergence test/greenhouse. The note with it: rated after three weeks vs untreated control. Format: in vivo.
The test system of series [3] is Alopecurus. Kind of series: Post-emergence test/greenhouse. It is filed as in vivo. As to conditions: rated after three weeks vs untreated control.
The test system of another series is Echinochloa. Kind of series: Post-emergence test/greenhouse. It is filed as in vivo. As to conditions: rated after three weeks vs untreated control.
The subject of a further series is Matricaria. Kind of series: Post-emergence test/greenhouse. It is filed as in vivo. As to conditions: rated after three weeks vs untreated control.
The subject of series [4] is weeds. Kind of series: Post-emergence test/greenhouse. Format: in vivo.
Setting [5] is: application rate 30 g of ai./ha.
Where [6] appears, read: application rate 60 g of ai./ha.

Take `COc1cccc(C(F)(F)F)c1S(=O)(=O)NC(=O)Nc1nc(C)cc(C)n1` [Example 1, N-(4,6-dimethyl-pyrimidin-2-yl)-N′-(2-methoxy-6-trifluoromethyl-phenylsulphonyl)-urea]: the melting point was 190 °C. For the same compound, the “Alopecurus, % damage” value in the series with Alopecurus [1] (60 g of ai./ha) turned out to be 100%. For the same compound, the “Amaranthus, % damage” value in the series on Amaranthus (60 g of ai./ha) is 100%. Also, the “Chenopodium, % damage” value in the series on Chenopodium (60 g of ai./ha) came to 100%. Also, the “Lolium, % damage” value with Lolium (60 g of ai./ha) was 100%. In the series with Sorghum (60 g of ai./ha), the “Sorghum, % damage” value is on record as 100%. Further, the “Steltaria, % damage” value with Stellaria (60 g of ai./ha) is given as 100%. For the same compound, the activity against weeds result with weeds [2] is on record as “very strong activity against weeds”.
Turning to `COc1nc(NC(=O)NS(=O)(=O)c2c(C)cccc2OC)nc(OC)n1` [Example 2, N-(4,6-dimethoxy-1,3,5-triazin-2-yl)-N′-(2-methoxy-6-methyl-phenylsulphonyl)-urea], the melting point worked out at 163 °C. In addition, in the series with Alopecurus [1] (30 g of ai./ha), the “Alopecurus, % damage” value came to 100%. Also, the “Amaranthus, % damage” value with Amaranthus (30 g of ai./ha) is listed as 100%. In addition, in the series with Chenopodium (30 g of ai./ha), the “Chenopodium, % damage” value came to 100%. Further, the “Lolium, % damage” value with Lolium (30 g of ai./ha) is given as 100%. Further, in the series with Sorghum (30 g of ai./ha), the “Sorghum, % damage” value is reported as 100%. Also, the “Steltaria, % damage” value in the series on Stellaria (30 g of ai./ha) stood at 100%. Besides, in the series with weeds [2], the activity against weeds entry is given as “very strong activity against weeds”. For the same compound, the “degree of damage to the plants, Abutilon” value in the series with Abutilon (setting [5]) is 95%. Further, the “degree of damage to the plants, Alopecurus” value (shortened to “degree of damage … Alopecurus”) with Alopecurus [3] (setting [5]) is 90%. In addition, the “degree of damage to the plants, Echinochloa” value (“degree of damage … Echinochloa” for short) in the series on Echinochloa (setting [5]) is reported as 90%. Also, the “degree of damage to the plants, Matricaria” value (“degree of damage … Matricaria” for short) with Matricaria (setting [5]) was found to be 100%. Besides, the activity against weeds entry in the series on weeds [4] is “very strong activity against weeds”.
In turn, `CCOc1cccc(C)c1S(=O)(=O)NC(=O)Nc1nc(OC)cc(OC)n1` [Example 3, N-(4,6-dimethoxy-pyrimidin-2-yl)-N′-(2-ethoxy-6-methyl-phenylsulphonyl)-urea] returned a melting point of 184 °C. For the same compound, in the series with Alopecurus [1] (60 g of ai./ha), the “Alopecurus, % damage” value turned out to be 95%. For the same compound, the “Amaranthus, % damage” value in the series on Amaranthus (60 g of ai./ha) worked out at 80%. For the same compound, in the series with Chenopodium (60 g of ai./ha), the “Chenopodium, % damage” value is 95%. Besides, the “Lolium, % damage” value in the series on Lolium (60 g of ai./ha) was 60%. For the same compound, the “Sorghum, % damage” value in the series with Sorghum (60 g of ai./ha) is 80%. For the same compound, the “Steltaria, % damage” value with Stellaria (60 g of ai./ha) is 95%. Further, the activity against weeds entry in the series with weeds [2] is “very strong activity against weeds”. The “degree of damage to the plants, Abutilon” value with Abutilon (setting [6]) turned out to be 100%. For the same compound, the “degree of damage … Alopecurus” value with Alopecurus [3] (setting [6]) was 90%. Moreover, in the series on Echinochloa (setting [6]), the “degree of damage … Echinochloa” value turned out to be 80%. In addition, the “degree of damage … Matricaria” value with Matricaria (setting [6]) came out at 95%. Moreover, in the series with weeds [4], the activity against weeds entry was “very strong activity against weeds”.
In the case of `CCCOc1cccc(C)c1S(=O)(=O)NC(=O)Nc1nc(OC)nc(OC)n1` [Example 48], the “Alopecurus, % damage” value in the series with Alopecurus [1] (60 g of ai./ha) is 100%. The “Amaranthus, % damage” value in the series on Amaranthus (60 g of ai./ha) stood at 100%. In addition, the “Chenopodium, % damage” value in the series on Chenopodium (60 g of ai./ha) is 100%. In the series with Lolium (60 g of ai./ha), the “Lolium, % damage” value is 100%. Besides, the “Sorghum, % damage” value with Sorghum (60 g of ai./ha) is given as 100%. Besides, the “Steltaria, % damage” value in the series on Stellaria (60 g of ai./ha) was determined as 100%. Also, the activity against weeds result in the series with weeds [2] and with weeds [4] was “very strong activity against weeds” each time. In addition, the “degree of damage to the plants, Abutilon” value with Abutilon (setting [6]) is reported as 100%. In addition, the “degree of damage … Alopecurus” value with Alopecurus [3] (setting [6]) amounted to 95%. Further, the “degree of damage … Echinochloa” value in the series on Echinochloa (setting [6]) amounted to 70%. Moreover, the “degree of damage … Matricaria” value in the series on Matricaria (setting [6]) is recorded as 90%.
On to `CCCOc1cccc(C)c1S(=O)(=O)NC(=O)Nc1nc(C)nc(OC)n1` [Example 49], for which the “Alopecurus, % damage” value with Alopecurus [1] (30 g of ai./ha) is 100%. Also, the “Amaranthus, % damage” value in the series with Amaranthus (30 g of ai./ha) was found to be 100%. In addition, the “Chenopodium, % damage” value in the series on Chenopodium (30 g of ai./ha) was found to be 100%. In the series with Lolium (30 g of ai./ha), the “Lolium, % damage” value is 100%. Also, the “Sorghum, % damage” value in the series with Sorghum (30 g of ai./ha) worked out at 100%. The “Steltaria, % damage” value in the series with Stellaria (30 g of ai./ha) stood at 100%. Moreover, the activity against weeds result with weeds [2] and with weeds [4] was “very strong activity against weeds” in each case. The “degree of damage to the plants, Abutilon” value in the series on Abutilon (setting [5]) was found to be 100%. In addition, in the series on Alopecurus [3] (setting [5]), the “degree of damage … Alopecurus” value worked out at 90%. For the same compound, the “degree of damage … Echinochloa” value in the series with Echinochloa (setting [5]) came to 80%. Besides, the “degree of damage … Matricaria” value in the series with Matricaria (setting [5]) amounted to 100%.
In the case of `COc1nc(C)nc(NC(=O)NS(=O)(=O)c2c(C)cccc2OC(F)F)n1` [Example 66], the “Alopecurus, % damage” value in the series on Alopecurus [1] (60 g of ai./ha) is given as 95%. In the series with Amaranthus (60 g of ai./ha), the “Amaranthus, % damage” value is 95%. Further, in the series with Chenopodium (60 g of ai./ha), the “Chenopodium, % damage” value stood at 95%. Besides, the “Lolium, % damage” value with Lolium (60 g of ai./ha) is reported as 95%. Moreover, the “Sorghum, % damage” value with Sorghum (60 g of ai./ha) is on record as 95%. Moreover, the “Steltaria, % damage” value in the series with Stellaria (60 g of ai./ha) worked out at 95%. The activity against weeds entry in the series on weeds [2] and in the series on weeds [4] was “very strong activity against weeds” each time. The “degree of damage to the plants, Abutilon” value in the series on Abutilon (setting [6]) came to 100%. In addition, in the series with Alopecurus [3] (setting [6]), the “degree of damage … Alopecurus” value is recorded as 80%. The “degree of damage … Echinochloa” value in the series with Echinochloa (setting [6]) is reported as 80%. In addition, in the series with Matricaria (setting [6]), the “degree of damage … Matricaria” value stood at 100%.

As usually defined, the melting point is the temperature, or range, at which the solid turns liquid.
